Source: ChEMBL document CHEMBL1201862, “PubChem BioAssay data set” (2004)
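Cells were grown in 96-well plates and exposed to each compound for 48 hours at five concentrations; endpoints were interpolated linearly between bracketing concentrations, or set to the highest concentration if not reached. Here, GI50 denotes the concentration required for 50% inhibition of growth.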 Activity calls are given as the source filed them. Cut-off read from the data, not from the text of the source: active = GI50 up to about 1.1 µM and inactive = higher.

What was measured:
Assay in all cases: growth of human tumour cells (NCI), 48 h
[1] = tested on: A549
[2] = tested on: ACHN
[3] = tested on: BT-549
[4] = tested on: CAKI-1
[5] = tested on: CCRF-CEM
[6] = tested on: COLO 205
[7] = tested on: DU-145
[8] = tested on: EKVX
[9] = tested on: HCT-116
[10] = tested on: HCT-15
[11] = tested on: HL-60
[12] = tested on: HOP-62
[13] = tested on: HT-29
[14] = tested on: Hs-578T
[15] = tested on: IGROV-1
[16] = tested on: K562
[17] = tested on: KM12
[18] = tested on: LOX IMVI
[19] = tested on: M14
[20] = tested on: MCF7
[21] = tested on: MDA-MB-231
[22] = tested on: MDA-MB-435
[23] = tested on: MDA-N
[24] = tested on: MOLT-4
[25] = tested on: Malme-3M
[26] = tested on: NCI-H23
[27] = tested on: NCI-H460
[28] = tested on: NCI/ADR-RES
[29] = tested on: OVCAR-3
[30] = tested on: OVCAR-4
[31] = tested on: OVCAR-5
[32] = tested on: OVCAR-8
[33] = tested on: PC-3
[34] = tested on: RPMI-8226
[35] = tested on: RXF 393
[36] = tested on: SF-268
[37] = tested on: SF-295
[38] = tested on: SK-MEL-28
[39] = tested on: SK-MEL-5
[40] = tested on: SK-OV-3
[41] = tested on: SN12C
[42] = tested on: SNB-19
[43] = tested on: SNB-75
[44] = tested on: SR
[45] = tested on: SW-620
[46] = tested on: T47D
[47] = tested on: TK-10
[48] = tested on: U-251
[49] = tested on: UACC-257
[50] = tested on: UACC-62
[51] = tested on: UO-31
[52] = tested on: 786-0
[53] = tested on: A498
[54] = tested on: HCC 2998
[55] = tested on: HOP-92
[56] = tested on: NCI-H226
[57] = tested on: NCI-H522
[58] = tested on: SF-539
[59] = tested on: SK-MEL-2

Measured: GI50

CCOC(=O)CSc1nc(N)c2c(-c3ccc(OC)c(OC)c3)c3c(nc2n1)CCCC3
> 100 µM: [10]
inactive: [1] > 100 µM | [2] > 100 µM | [3] 61.9 µM | [4] > 100 µM | [5] > 100 µM | [6] > 100 µM | [7] > 100 µM | [8] 95.3 µM | [9] > 100 µM | [11] > 100 µM | [12] 39 µM | [13] > 100 µM | [14] 17.1 µM | [15] > 100 µM | [16] > 100 µM | [17] > 100 µM | [18] > 100 µM | [19] > 100 µM | [20] > 100 µM | [21] 43 µM | [22] > 100 µM | [23] > 100 µM | [24] > 100 µM | [25] 88.1 µM | [26] > 100 µM | [27] > 100 µM | [28] 60.3 µM | [29] > 100 µM | [30] 34.4 µM | [31] > 100 µM | [32] 24.3 µM | [33] > 100 µM | [34] > 100 µM | [35] 49.2 µM | [36] 43.4 µM | [37] 24.4 µM | [38] > 100 µM | [39] > 100 µM | [40] 26.9 µM | [41] > 100 µM | [42] 95.5 µM | [43] 14.4 µM | [44] > 100 µM | [45] > 100 µM | [46] > 100 µM | [47] > 100 µM | [48] > 100 µM | [49] > 100 µM | [50] > 100 µM | [51] > 100 µM

COc1ccc(-n2cnc3c(N)nc(N)nc32)cc1
inactive: [52] > 100 µM | [53] 54.8 µM | [1] 93.3 µM | [2] > 100 µM | [3] > 100 µM | [4] 76.7 µM | [5] 25.4 µM | [6] > 100 µM | [7] > 100 µM | [8] 24.8 µM | [54] 64.4 µM | [9] > 100 µM | [12] > 100 µM | [55] > 100 µM | [13] > 100 µM | [14] 25.6 µM | [15] 56.9 µM | [17] 29.1 µM | [19] > 100 µM | [20] 90.8 µM | [21] 57.8 µM | [22] > 100 µM | [23] > 100 µM | [24] 34 µM | [25] > 100 µM | [56] > 100 µM | [26] > 100 µM | [57] > 100 µM | [28] > 100 µM | [29] > 100 µM | [30] > 100 µM | [31] > 100 µM | [32] > 100 µM | [33] > 100 µM | [34] > 100 µM | [35] 43.2 µM | [36] > 100 µM | [37] > 100 µM | [58] 49.5 µM | [38] > 100 µM | [59] 54.2 µM | [39] > 100 µM | [40] > 100 µM | [41] 53.6 µM | [42] > 100 µM | [43] 45.7 µM | [45] > 100 µM | [46] > 100 µM | [47] 85.7 µM | [48] > 100 µM | [49] > 100 µM | [50] 30.8 µM | [51] 65 µM
> 100 µM: [10]
